Where two headings read alike, the source gives them in different places.
How the values were obtained:
[1] = molecular target: recombinant human His-tagged MDM2 protein (residues 1-118) (Homo sapiens (Human), UniProt Q00987); assay: Fluorescence-polarization MDM2 binding assay;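 further: fluorescence polarization read after three hours of incubation in potassium phosphate buffer containing bovine gamma globulin and Triton X-100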
Experimental: The assay was performed in the buffer: 100 mM potassium phosphate, pH 7.5; 100 μg/mL bovine gamma globulin; 0.02% sodium azide, 0.01% Triton X-100) and the polarization values were measured after 3 h of incubation using an ULTRA READER (Tecan U.S. Inc., Research Triangle Park, N.C.). […] The Kd value was calculated using the equation: Kd value=IC50−L0/2.
The polarization values were measured after 3 h of incubation. […] Curve fitting was performed using [sequence] PRISM software (GraphPad Software, Inc., San Diego, Calif.). […] Compounds shown in Tables 19A-D as the free base were tested either as the free base or as the CF3CO2H (TFA) or HCl salt.

[2] = test system: Isogenic HCT-116 colon cancer cell lines; assay: cells; assay type: cell-based;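 further: cells grown in 96-well plates in McCoy's 5A medium with 10% FBS, exposed to compound for 4 days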
Experimental: Cells were seeded in 96-well flat bottom cell culture plates at a density of 2−3×10^3 cells/well with compounds and incubated for 4 days.

[3] = test system: cancer cell lines with wild-type p53 / mutated or deleted p53 (ATCC); assay: Cell growth assay (WST-8), other cancer cell lines; assay type: cell-based
[4] = Table 19B, read-out: Binding affinities to MDM2 protein as determined by FP based assay IC50
[5] = Homo sapiens, HCT-116, read-out: Inhibition of cell growth IC50, HCT116 p53 KO, Table 19B, HCT116 p53 KO
[6] = Homo sapiens, HCT-116, read-out: Inhibition of cell growth IC50, HCT116 p53 WT, Table 19B, HCT116 p53 WT
[7] = Homo sapiens, LNCaP, Table 19B, LNCaP cells, read-out: Inhibition of cell growth IC50, LNCaP
[8] = Homo sapiens, PC-3, Table 19B, PC3 cells, read-out: Inhibition of cell growth IC50, PC3
[9] = Table 19A, FP binding assay, read-out: MDM2 IC50
[10] = Homo sapiens, HCT-116, read-out: HCT-116 (p53-/-) IC50, Table 19A, HCT-116 p53-/-, cell growth
[11] = Homo sapiens, HCT-116, read-out: HCT-116 (p53 wild-type) IC50, Table 19A, HCT-116 p53 wild-type, cell growth
[12] = Homo sapiens, LNCaP, Table 19A, LNCAP cells, p53 wild-type, cell growth, read-out: LNCAP (p53 wild-type) IC50
[13] = Homo sapiens, PC-3, Table 19A, PC-3 cells, deleted p53, cell growth, read-out: PC-3 (deleted p53) IC50

Chain of recombinant human His-tagged MDM2 protein (residues 1-118) (Q00987 1-118): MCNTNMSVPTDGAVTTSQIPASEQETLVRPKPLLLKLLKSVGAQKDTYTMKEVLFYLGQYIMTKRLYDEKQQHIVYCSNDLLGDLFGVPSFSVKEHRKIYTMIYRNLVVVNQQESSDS

| SMILES | IC50 [1, 4] | IC50 [2, 5] | IC50 [2, 6] | IC50 [3, 7] | IC50 [3, 8] | IC50 ([2]; read-out: Inhibition of cell growth IC50, HCT116 p53 KO, Table 19B, HCT116 p53 KO) | IC50 ([2]; read-out: Inhibition of cell growth IC50, HCT116 p53 WT, Table 19B, HCT116 p53 WT) | IC50 ([3]; Table 19B, LNCaP cells, read-out: Inhibition of cell growth IC50, LNCaP) | IC50 ([3]; Table 19B, PC3 cells, read-out: Inhibition of cell growth IC50, PC3) | IC50 [1, 9] | IC50 [2, 10] | IC50 [2, 11] | IC50 [3, 12] | IC50 [3, 13] |
| --- | --- | --- | --- | --- | --- | --- | --- | --- | --- | --- | --- | --- | --- | --- |
| CC(C)CC(C)(C)C[C@H]1N[C@@H](C(=O)NCCN2CCOCC2)[C@H](c2cccc(Cl)c2F)[C@@]12C(=O)Nc1cc(F)c(F)cc12 [MI-730] | < 1 µM | 7.8 ± 0.7 µM | 1.4 ± 0.3 µM | 1.7 ± 0.5 µM | 6.3 ± 1.4 µM | – | – | – | – | – | – | – | – | – |
| CC(C)CC(C)(C)C[C@H]1N[C@@H](C(=O)NCC[C@H](O)CO)[C@H](c2cccc(Cl)c2F)[C@@]12C(=O)Nc1cc(Cl)c(F)cc12 [MI-731] | < 1 µM | 6.4 ± 1.7 µM | 0.9 ± 0.5 µM | 0.8 ± 0.5 µM | 5.6 ± 1.9 µM | – | – | – | – | – | – | – | – | – |
| CC(C)CC(C)(C)C[C@H]1N[C@@H](C(=O)NCC[C@H](O)CO)[C@H](c2cccc(Cl)c2F)[C@@]12C(=O)Nc1cc(F)c(F)cc12 [MI-732] | < 1 µM | 10.2 ± 4.8 µM | 0.7 ± 0.1 µM | 0.7 µM | 5.8 µM | – | – | – | – | – | – | – | – | – |
| CC(C)CC(C)(C)C[C@H]1N(C)[C@@H](C(=O)NCC[C@H](O)CO)[C@H](c2cccc(Cl)c2F)[C@@]12C(=O)Nc1cc(Cl)c(F)cc12 [MI-733] | > 1 µM | 8.7 ± 0.9 µM | 2.4 ± 0.3 µM | 2.2 ± 0.5 µM | 5.4 ± 1.7 µM | – | – | – | – | – | – | – | – | – |
| CC(C)CC(C)(C)C[C@H]1N(C)[C@@H](C(=O)NCC[C@H](O)CO)[C@H](c2cccc(Cl)c2F)[C@@]12C(=O)Nc1cc(F)c(F)cc12 [MI-734] | > 5 µM | 8.2 ± 3.5 µM | 5.5 ± 2.1 µM | 3.7 ± 1.1 µM | 7.4 ± 1.8 µM | – | – | – | – | – | – | – | – | – |
| CC(C)CC(C)(C)C[C@H]1N[C@@H](C(=O)NCC[C@H](O)CO)[C@H](c2cccc(Cl)c2)[C@@]12C(=O)Nc1cc(F)c(F)cc12 [MI-735] | < 1 µM | 8.5 ± 1.1 µM | 1.2 ± 0.3 µM | 1.1 ± 0.4 µM | 8.6 ± 0.9 µM | – | – | – | – | – | – | – | – | – |
| CC(C)CC(C)(C)C[C@H]1N[C@@H](C(=O)NCC[C@H](O)CO)[C@H](c2ccc(F)c(Cl)c2)[C@@]12C(=O)Nc1cc(F)c(F)cc12 [MI-736] | < 1 µM | 4.4 ± 0.9 µM | 1 ± 0.2 µM | 0.9 µM | 6.3 ± 1.2 µM | – | – | – | – | – | – | – | – | – |
| CC(C)CC(C)(C)C[C@H]1N(C)[C@@H](C(=O)NCC[C@H](O)CO)[C@H](c2cccc(Cl)c2)[C@@]12C(=O)Nc1cc(F)c(F)cc12 [MI-737] | > 1 µM | 24.4 µM | 5 µM | 3.53 µM | 11.3 µM | 15 µM | 4.5 µM | 3.73 µM | 11.6 µM | – | – | – | – | – |
| CC(C)CC(C)(C)C[C@H]1N(C)[C@@H](C(=O)NCC[C@H](O)CO)[C@H](c2ccc(F)c(Cl)c2)[C@@]12C(=O)Nc1cc(F)c(F)cc12 [MI-738] | > 3 µM | 8.2 ± 0.6 µM | 8.5 ± 2.1 µM | 4.8 ± 1 µM | 8.5 ± 0.6 µM | – | – | – | – | – | – | – | – | – |
| CC(C)(C)C[C@H]1N[C@@H](C(=O)N2CCNCC2)[C@H](c2cccc(Cl)c2)[C@@]12C(=O)Nc1cc(Cl)c(F)cc12 [MI-739] | – | – | – | – | – | – | – | – | – | < 5 µM | 3 ± 0.2 µM | 2.1 ± 0.6 µM | 1.5 ± 0.5 µM | 3.2 ± 0.7 µM |
| CN1CCN(C(=O)[C@@H]2N[C@H](CC(C)(C)C)[C@]3(C(=O)Nc4cc(Cl)c(F)cc43)[C@H]2c2cccc(Cl)c2)CC1 [MI-740] | – | – | – | – | – | – | – | – | – | < 5 µM | 5.4 ± 1.9 µM | 2.8 ± 0.1 µM | 2 ± 0.3 µM | 4.8 ± 0.8 µM |
| CC(=O)N1CCN(C(=O)[C@@H]2N[C@H](CC(C)(C)C)[C@]3(C(=O)Nc4cc(Cl)c(F)cc43)[C@H]2c2cccc(Cl)c2)CC1 [MI-742] | – | – | – | – | – | – | – | – | – | < 10 µM | 19.9 ± 10.3 µM | 1.7 ± 0.1 µM | 2.2 ± 0.3 µM | 10.2 ± 4.8 µM |
| CC(C)(C)C[C@H]1N[C@@H](C(=O)N2CCN(C(=O)C3CC3)CC2)[C@H](c2cccc(Cl)c2)[C@@]12C(=O)N(C(=O)C1CC1)c1cc(Cl)c(F)cc12 [MI-743B] | > 100 µM | > 1 µM | > 1 µM | > 1 µM | > 1 µM | – | – | – | – | – | – | – | – | – |
| CC(C)(C)C[C@H]1N[C@@H](C(=O)N2CCN(C(=O)C3CC3)CC2)[C@H](c2cccc(Cl)c2)[C@@]12C(=O)Nc1cc(Cl)c(F)cc12 [MI-743] | > 1 µM | 5.7 ± 3.4 µM | 2.4 ± 0.2 µM | 2.5 ± 0.5 µM | 7.7 ± 3.1 µM | – | – | – | – | – | – | – | – | – |
